Patent US20140287419A1, “Compositions Having Dicamba Decarboxylase Activity and Methods of Use” (priority 2013, published 2014)
Entries after “also recorded” stand apart in the source; their conditions may differ.

Assays:
[1] = system: Arabidopsis ecotype Columbia (Col-O); assay: Arabidopsis root growth inhibition assay; conditions: 6 days
Method: Phytotoxicity of other major dicamba decarboxylated products was evaluated using Arabidopsis root growth inhibition assay. 4-chloro-3-methoxy phenol was purchased from Biogene Organics, Inc. (catalog number U06-642-79). 2,5-dichloro phenol was purchased from Sigma-Aldrich (catalog number D70007). Briefly, seeds of Arabidopsis ecotype Columbia (Col-O) were surface sterilized with 70% (v/v) ethanol for 5 minutes and 10% (v/v) bleach for 15 minutes. After being washed three times with distilled water, the seeds were germinated on 1× Murashige and Skoog (MS) medium with a pH of 5.7, 3% (w/v) sucrose, and 0.8% (w/v) agar. After incubation for 3.5 days, the seedlings were transferred to 1× MS medium containing B5 vitamin, 3% (w/v) sucrose, 1.2% (w/v) agar, and filter sterilized compounds was added to the media at 60° C. The concentrations of compounds including dicamba were 0 μM, 1.0 μM, and 10 μM. The seedlings were placed vertically, and the temperature maintained at 23° C. to allow root growth along the surface of the agar, with a photoperiod of 16 h of light and 8 h of dark.
After 6 days on media, root growth was evaluated. In wild type Arabidopsis, root growth inhibition is expected from auxin herbicide treatment.

[2] = system: Soybean seeds of a Pioneer elite germplasm; assay: Soybean germination phytotoxicity test; conditions: for soybean seed germination and growth: 16 days

Compound | Arabidopsis root growth ([1]; 1.0 uM in MS medium) | Arabidopsis root growth ([1]; 10 uM in MS medium) | soybean seed germination and growth ([2]; 1 μM in germination media) | soybean seed germination and growth ([2]; 10 μM in germination media) | soybean seed germination and growth ([2]; 100 μM in germination media) | soybean germination ([2]; FIG. 2 legend, no concentration given)
Oc1cc(Cl)ccc1Cl [2,5-dichloro phenol] | not affected; also recorded: did not have any effect on the growth of Arabidopsis roots | not affected; also recorded: did not have any effect on the growth of Arabidopsis roots | – | – | – | –
COc1cc(Cl)ccc1Cl [2,5-DCA, 2,5-dichloro anisole] | – | – | seed germination and growth were normal | seed germination and growth were normal | did not have any obvious impact on soybean germination and growth | not affected
